Laboratory results reported in patent US8372799B2, “Reverse protein” (Apeptico Forschung und Entwicklung GmbH, priority 2007, dated 2013).
Where a SMILES comes first, the peptide text is derived from it. Bridges are numbered along the chain shown (N, C = ends).

Columns and labels:
[1] = tested on: pulmonary oedema in Wistar rats; assay: Experimental animal study pulmonary oedema: oxygen content of arterial blood after acid lung rinsing; format: in vivo, rat; conditions: 125 μg protein intratracheal, 180 minutes after lung rinsing, before rinsing = 100%, without protein 20%
Text: For the simulation of an acute lung injury and for the formation of a pulmonary oedema, the lungs of laboratory animals, e.g., mice or rats, can be rinsed several times with an acidified saline solution in a manner common in laboratories (for example, according to Isik F. et al., Eur J Cardiothorac Surg (2005); 28: 301-305). The result is a decrease in lung function. If a protein according to the present invention, e.g., a protein of amino acid sequence SEQ ID NO:1, SEQ ID NO:2 or SEQ ID NO:3, is injected as a fog or in an aqueous solution into the lungs of the laboratory animals, a distinct improvement in the lung function will occur within 3 to 5 hours, as indicated by the increased oxygen content in the arterial blood. Thus, a protein according to the present invention can be used for the treatment of oedemas such as pulmonary oedemas.
Male Wistar rats (weighing from 250 g to 350 g) are anesthetized with Rompun® (0.02 ml/100 g) and Ketavet® (0.1 ml/100 g). The respiration is done with a cycle of […], with an inhalation time of 0.2 seconds and an exhalation time of 0.5 seconds. The body temperature ranges, on average, from 37° C. to 39° C. […]
At intervals of 60 minutes each, arterial blood (0.1 ml) is withdrawn from the animals, and the oxygen content is determined in % relative to the normal value.
The verification of the stimulating effect of a protein according to the present invention, e.g., of a protein comprising amino acid sequence SEQ ID NO:1, SEQ ID NO:2 or SEQ ID NO:3, on the lung function is made via experimental animal studies in which a pulmonary oedema is induced. […] In each case, 5 animals are used for objectifying the measured values.
For the intratracheal inhalation, 125 μg protein are, in each case, dissolved in 150 mM saline solution pH 7.3. The oxygen content of the arterial blood is measured immediately before rinsing the lungs, 60 minutes after rinsing the lungs and 180 minutes after rinsing the lungs.
The oxygen content immediately before rinsing the lungs is determined to be 100%. […]

Interleukin-6 (IL-6) = assay: Determination of inflammatory parameters: Interleukin-6 release in human fresh blood (ELISA); format: cell-based; conditions: for inflammatory proteins such as the inflammation marker Interleukin-6 (IL-6): human immune cells from the blood, protein at a small concentration; for Concentration of Interleukin-6 (average of three measurements): human fresh blood, 24 hours at 37° C.
Description: For the examination, human immune cells from the blood are mixed with protein according to the present invention at a small concentration and are incubated in a manner common in laboratories. Subsequently, marker proteins for inflammations are determined by conventional methods.
Fresh human blood has a very sensitive reaction to pro-inflammatory molecules, among other things, with a release of the inflammation marker Interleukin-6 (IL-6). For determining the pro-inflammatory reaction, samples of human fresh blood with different concentrations of the protein comprising amino acid sequence SEQ ID NO:3 were incubated at the following concentrations: 10 μg/ml, 3 μg/ml, 1 μg/ml. After an incubation of 24 hours at 37° C., the inflammation marker Interleukin-6 was quantitatively determined in the solution via ELISA. LPS served as a positive control.

| SMILES | oxygen content in the arterial blood [1] | inflammatory proteins such as the inflammation marker Interleukin-6 (IL-6) (Interleukin-6 (IL-6)) | Concentration of Interleukin-6 (average of three measurements) (Interleukin-6 (IL-6); 1 μg/ml) | Concentration of Interleukin-6 (average of three measurements) (Interleukin-6 (IL-6); 10 μg/ml) | Concentration of Interleukin-6 (average of three measurements) (Interleukin-6 (IL-6); 1 nμg/ml) | Concentration of Interleukin-6 (average of three measurements) (Interleukin-6 (IL-6); 3 nμg/ml) |
| --- | --- | --- | --- | --- | --- | --- |
| C[C@@H]1NC(=O)CNC(=O)[C@H](CCC(=O)O)NC(=O)[C@@H]2CCCN2C(=O)[C@H]([C@@H](C)O)NC(=O)[C@H](CCC(=O)O)NC(=O)[C@H](CCCNC(=N)N)NC(=O)[C@H](CCC(N)=O)NC(=O)[C@@H](NC(=O)[C@@H]2CCCN2C(=O)[C@H](CO)NC(=O)[C@@H](N)CCCCN)CSSC[C@@H](C(=O)N2CCC[C@H]2C(=O)N[C@@H](CO)C(=O)O)NC(=O)CNC(=O)CNC(=O)[C@H](CCCCN)NC(=O)[C@H](C)NC(=O)[C@H](CCC(=O)O)NC1=O [SEQ ID NO:2] (H-KSPCQRETPEGAEAKGGCPS-OH; disulfide 4-18) | 63% | cannot be detected |  |  |  |  |
| CC[C@H](C)[C@H](NC(=O)[C@H](C)N)C(=O)N[C@@H](CCCCN)C(=O)N[C@@H](CO)C(=O)N1CCC[C@H]1C(=O)N[C@H]1CSSC[C@@H](C(=O)N2CCC[C@H]2C(=O)N[C@@H](CO)C(=O)N[C@H](C(=O)N[C@@H](Cc2c[nH]cn2)C(=O)N[C@H](C(=O)O)C(C)C)[C@@H](C)O)NC(=O)CNC(=O)CNC(=O)[C@H](CCCCN)NC(=O)[C@H](C)NC(=O)[C@H](CCC(=O)O)NC(=O)[C@H](C)NC(=O)CNC(=O)[C@H](CCC(=O)O)NC(=O)[C@@H]2CCCN2C(=O)[C@H]([C@@H](C)O)NC(=O)[C@H](CCC(=O)O)NC(=O)[C@H](CCCNC(=N)N)NC(=O)[C@H](CCC(N)=O)NC1=O [SEQ ID NO:1] (H-AIKSPCQRETPEGAEAKGGCPSTHV-OH; disulfide 6-20) | 60% | cannot be detected |  |  |  |  |
| C[C@@H]1NC(=O)CNC(=O)[C@H](CCC(=O)O)NC(=O)[C@@H]2CCCN2C(=O)[C@H]([C@@H](C)O)NC(=O)[C@H](CCC(=O)O)NC(=O)[C@H](CCCNC(=N)N)NC(=O)[C@H](CCC(N)=O)NC(=O)[C@@H](N)CSSC[C@@H](C(=O)O)NC(=O)CNC(=O)CNC(=O)[C@H](CCCCN)NC(=O)[C@H](C)NC(=O)[C@H](CCC(=O)O)NC1=O [SEQ ID NO:3, (NH2)Cys-Gln-Arg-Glu-Thr-Pro-Glu-Gly-Ala-Glu-Ala-Lys-Gly-Gly-Cys(COOH)] (H-CQRETPEGAEAKGGC-OH; disulfide 1-15) | 70% | cannot be detected | less than 0.5 pg/ml | less than 0.5 pg/ml | less than 0.5 pg/ml | less than 0.5 pg/ml |
